Assay [1] relates to Staphylococcus aureus. Put plainly: Antibacterial activity against TMP-resistant Staphylococcus aureus expressing DHFR F99Y mutant after 18 to 24 hrs by alamar Blue assay. It is filed as functional. For orientation: Alamar Blue is a resazurin reagent that responds to reducing activity.
Assay [2] relates to Streptococcus pneumoniae. The experiment in a line: Antibacterial activity against Streptococcus pneumoniae ATCC 49619 after 18 to 24 hrs by alamar Blue assay. It is filed as functional.
The test system of assay [3] is Streptococcus pneumoniae. The experiment in a line: Antibacterial activity against Streptococcus pneumoniae ATCC 700674 after 18 to 24 hrs by alamar Blue assay. Type of assay: functional.
For assay [4], the system named is Streptococcus pneumoniae. The experiment in a line: Antibacterial activity against Streptococcus pneumoniae ATCC 700676 after 18 to 24 hrs by alamar Blue assay. Type of assay: functional.
In assay [5] the test system is Streptococcus pneumoniae. The experiment in a line: Antibacterial activity against Streptococcus pneumoniae ATCC 700669 after 18 to 24 hrs by alamar Blue assay. Type of assay: functional.
The subject of assay [6] is Staphylococcus aureus. Put plainly: Antibacterial activity against Staphylococcus aureus ATCC 13709 after 18 to 24 hrs by alamar Blue assay. It is filed as functional.
In assay [7] the test system is Staphylococcus aureus. Put plainly: Antibacterial activity against Staphylococcus aureus ATCC 13709 after 18 to 24 hrs by alamar Blue assay in presence of 20% heat inactivated mouse serum. Type of assay: functional.
The subject of assay [8] is Streptococcus pneumoniae. The experiment in a line: Antibacterial activity against Streptococcus pneumoniae ATCC 700671 after 18 to 24 hrs by alamar Blue assay. Type of assay: functional.
Assay [9] has as its system Streptococcus pneumoniae. The experiment in a line: Antibacterial activity against Streptococcus pneumoniae ATCC 700677 after 18 to 24 hrs by alamar Blue assay. Type of assay: functional.
Assay [10] deals with Streptococcus pneumoniae. Put plainly: Antibacterial activity against Streptococcus pneumoniae ATCC 700675 after 18 to 24 hrs by alamar Blue assay. It is filed as functional.
For assay [11], the system named is Streptococcus pneumoniae. The experiment in a line: Antibacterial activity against Streptococcus pneumoniae after 18 to 24 hrs by alamar Blue assay. It is filed as functional.
Assay [12] relates to Streptococcus pneumoniae. Put plainly: Antibacterial activity against Streptococcus pneumoniae ATCC BAA-255 after 18 to 24 hrs by alamar Blue assay. It is filed as functional.
For assay [13], the system named is Streptococcus pneumoniae. Put plainly: Antibacterial activity against Streptococcus pneumoniae ATCC 51916 after 18 to 24 hrs by alamar Blue assay. It is filed as functional.
The target in assay [14] is T1, Dihydrofolate reductase (Homo sapiens, UniProt P00374).
T1 sequence (P00374 whole entry): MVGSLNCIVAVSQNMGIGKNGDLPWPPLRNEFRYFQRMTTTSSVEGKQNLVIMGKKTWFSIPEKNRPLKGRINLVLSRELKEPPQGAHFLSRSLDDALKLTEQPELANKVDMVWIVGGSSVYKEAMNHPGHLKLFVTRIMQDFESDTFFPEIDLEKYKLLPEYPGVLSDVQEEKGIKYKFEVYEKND
The experiment in a line: Inhibition of human DHFR using dihydrofolate as substrate preincubated for 10 mins followed by substrate addition by spectrophotometric analysis in presence of NADPH.

Assay [15] deals with Streptococcus pneumoniae. The experiment in a line: Antibacterial activity against Streptococcus pneumoniae ATCC 700904 after 18 to 24 hrs by alamar Blue assay. Type of assay: functional.
Assay [16] deals with Dihydrofolate reductase (Staphylococcus aureus, UniProt P0A017). The experiment in a line: Inhibition of Staphylococcus aureus DHFR using dihydrofolate as substrate preincubated for 10 mins followed by substrate addition by spectrophotometric analysis in presence of NADPH.
A short description of assay [17]: Selectivity ratio of Ki for human DHFR to Ki for Staphylococcus aureus DHFR.

Values after ≈ are worked out from the molar mass of the structure shown.

Chain of Dihydrofolate reductase (Staphylococcus aureus, UniProt P0A017) (P0A017 whole entry): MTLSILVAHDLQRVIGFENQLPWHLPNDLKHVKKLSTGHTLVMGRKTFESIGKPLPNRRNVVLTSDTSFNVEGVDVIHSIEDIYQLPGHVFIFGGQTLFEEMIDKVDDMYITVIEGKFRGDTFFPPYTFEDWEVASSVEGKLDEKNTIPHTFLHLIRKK

Turning to `Cc1cc2nc(-c3cccs3)n(-c3cc4nc(N)nc(N)c4cc3Cl)c2cc1C`, the MIC against Staphylococcus aureus [1] is 4 µg/mL (≈ 9.5 µM); against Streptococcus pneumoniae [2] it was 0.5 µg/mL (≈ 1.19 µM); with Streptococcus pneumoniae [3], above 64 µg/mL; against Streptococcus pneumoniae [4] it was 0.25 µg/mL (≈ 0.594 µM); in the assay on Streptococcus pneumoniae [5], 2 µg/mL (≈ 4.75 µM); in the assay on Staphylococcus aureus [6], 0.03 µg/mL (≈ 0.0713 µM). Moreover, the MIC was 1 µg/mL in the assay on Staphylococcus aureus [7]; above 64 µg/mL in the assay with Streptococcus pneumoniae [8]; 0.25 µg/mL (≈ 0.594 µM) in the assay with Streptococcus pneumoniae [9]; 1 µg/mL (≈ 2.38 µM) in the assay on Streptococcus pneumoniae [10]; at most 0.125 µg/mL in the assay on Streptococcus pneumoniae [12]; 1 µg/mL (≈ 2.38 µM) in the assay with Streptococcus pneumoniae [13]. The compound further yielded a minimal inhibitory concentration (MIC) against Streptococcus pneumoniae [15] of 4 µg/mL (≈ 9.5 µM). Besides, the MIC50 against Streptococcus pneumoniae [11] was 1 µg/mL (≈ 2.38 µM). Besides, the MIC90 in the assay on Streptococcus pneumoniae [11] was above 64 µg/mL. The Ki on Dihydrofolate reductase [14] is above 3000 nM; on Dihydrofolate reductase [16] it was 0.01 nM.
Compound `CN(Cc1cnc2nc(N)nc(N)c2n1)c1ccc(C(=O)N[C@@H](CCC(=O)O)C(=O)O)cc1` [METHOTREXATE] returned an MIC against Staphylococcus aureus [6] above 64 µg/mL.
For the compound `Cc1cc2nc(-c3cccs3)n(-c3ccc4c(N)nc(N)nc4c3)c2cc1C`, the MIC in the assay on Staphylococcus aureus [1] is 0.25 µg/mL (≈ 0.647 µM); in the assay with Streptococcus pneumoniae [2], at most 0.5 µg/mL; in the assay with Streptococcus pneumoniae [3], 16 µg/mL (≈ 41.4 µM); with Streptococcus pneumoniae [4], 0.25 µg/mL (≈ 0.647 µM); against Streptococcus pneumoniae [5], 4 µg/mL (≈ 10.3 µM); in the assay with Staphylococcus aureus [6], 0.015 µg/mL (≈ 0.0388 µM). The MIC in the assay on Streptococcus pneumoniae [8] was 32 µg/mL (≈ 82.8 µM); against Streptococcus pneumoniae [9], 0.25 µg/mL (≈ 0.647 µM); in the assay with Streptococcus pneumoniae [10], 1 µg/mL (≈ 2.59 µM); in the assay with Streptococcus pneumoniae [12], at most 0.125 µg/mL; in the assay on Streptococcus pneumoniae [13], 4 µg/mL (≈ 10.3 µM); with Streptococcus pneumoniae [15], 4 µg/mL (≈ 10.3 µM). In addition, the MIC50 against Streptococcus pneumoniae [11] stood at 1 µg/mL (≈ 2.59 µM). This compound also had an MIC90 in the assay with Streptococcus pneumoniae [11] of 16 µg/mL (≈ 41.4 µM).
On to `Cc1cc2nc(-c3ccncc3)n(-c3ccc4c(N)nc(N)nc4c3)c2cc1C`, for which the MIC in the assay with Staphylococcus aureus [1] stood at 8 µg/mL (≈ 21 µM); against Staphylococcus aureus [6] it was 0.125 µg/mL (≈ 0.328 µM); in the assay with Staphylococcus aureus [7], 0.5 µg/mL. The inhibition constant (Ki) on Dihydrofolate reductase [14] amounted to 437 nM; on Dihydrofolate reductase [16] it was 0.026 nM.
For the compound `Cc1cc2nc(-c3ccccn3)n(-c3ccc4c(N)nc(N)nc4c3)c2cc1C`, the values for the MIC in the assay on Staphylococcus aureus [1] and in the assay with Staphylococcus aureus [6] were 4 µg/mL (≈ 10.5 µM) and 0.125 µg/mL (≈ 0.328 µM), respectively. In assay [17], the Ratio Ki was 26000.
Consider `COc1cc2nc(-c3nccs3)n(-c3cc4nc(N)nc(N)c4cc3Cl)c2cc1OC`, for which the MIC in the assay on Staphylococcus aureus [1] worked out at 2 µg/mL (≈ 4.41 µM); with Staphylococcus aureus [6], 0.125 µg/mL (≈ 0.275 µM). For the same compound, in assay [17], the Ratio Ki turned out to be 29000.
For `Cc1cc2nc(-c3cccnc3)n(-c3ccc4c(N)nc(N)nc4c3)c2cc1C`, the MIC against Staphylococcus aureus [1] stood at 32 µg/mL (≈ 83.9 µM); with Staphylococcus aureus [6], 0.5 µg/mL (≈ 1.31 µM); in the assay on Staphylococcus aureus [7] it was 2 µg/mL. Besides, the Ratio Ki in [17] was above 1250. In addition, the Ki on Dihydrofolate reductase [14] amounted to 1560 nM; on Dihydrofolate reductase [16], 0.26 nM.
As for `Cc1cc2nc(-c3cncn3C)n(-c3ccc4c(N)nc(N)nc4c3)c2cc1C`, the results for the MIC with Staphylococcus aureus [1], with Staphylococcus aureus [6] and with Staphylococcus aureus [7] were 64 µg/mL (≈ 166 µM), 4 µg/mL (≈ 10.4 µM) and 32 µg/mL, respectively. Besides, the Ki on Dihydrofolate reductase [14] turned out to be 2920 nM; at Dihydrofolate reductase [16] it was 1.1 nM.
In the case of `COc1cc2nc(-c3nccs3)n(-c3cc4nc(N)nc(N)c4cc3C)c2cc1OC`, the minimal inhibitory concentration (MIC) is 8 µg/mL (≈ 18.5 µM) against Staphylococcus aureus [1], 0.5 µg/mL (≈ 1.15 µM) in the assay with Staphylococcus aureus [6] and 0.5 µg/mL in the assay on Staphylococcus aureus [7]. In assay [17], the Ratio Ki was determined as 8950.
Consider `Cc1cc2ncn(-c3ccc4c(N)nc(N)nc4c3)c2cc1C`, for which the MIC was above 64 µg/mL in the assay with Staphylococcus aureus [1], 2 µg/mL (≈ 6.57 µM) in the assay with Staphylococcus aureus [6] and 32 µg/mL in the assay on Staphylococcus aureus [7]. The Ki was 1610 nM at Dihydrofolate reductase [14] and 1.7 nM at Dihydrofolate reductase [16].
Turning to `COc1cc(Cc2cnc(N)nc2N)c2c(c1OC)OC(C1CC1)C=C2` (centres undefined), the MIC with Streptococcus pneumoniae [2] was 0.125 µg/mL (≈ 0.353 µM); with Streptococcus pneumoniae [3] it was 8 µg/mL (≈ 22.6 µM); in the assay with Streptococcus pneumoniae [4], at most 0.5 µg/mL; in the assay on Streptococcus pneumoniae [5], 8 µg/mL (≈ 22.6 µM); in the assay with Staphylococcus aureus [6] it was 0.125 µg/mL (≈ 0.353 µM); in the assay with Staphylococcus aureus [7] it was 0.125 µg/mL. Besides, the MIC against Streptococcus pneumoniae [8] is 16 µg/mL (≈ 45.1 µM); in the assay on Streptococcus pneumoniae [9] it was at most 0.5 µg/mL; against Streptococcus pneumoniae [10], at most 0.5 µg/mL; against Streptococcus pneumoniae [12], at most 0.5 µg/mL; with Streptococcus pneumoniae [13] it was 1 µg/mL (≈ 2.82 µM); with Streptococcus pneumoniae [15] it was 4 µg/mL (≈ 11.3 µM). The MIC50 in the assay with Streptococcus pneumoniae [11] is at most 0.5 µg/mL. The same compound registered an MIC90 in the assay with Streptococcus pneumoniae [11] of 8 µg/mL (≈ 22.6 µM).
The compound `COc1cc2nc(-c3nccs3)n(-c3ccc4c(N)nc(N)nc4c3)c2cc1OC` yielded an MIC in the assay on Staphylococcus aureus [1] of 16 µg/mL (≈ 38.1 µM). Further, the Ratio Ki in assay [17] came to 5300.
With `Cc1cc2nc(-c3cccn3C)n(-c3ccc4c(N)nc(N)nc4c3)c2cc1C`, the MIC turned out to be 64 µg/mL (≈ 167 µM) in the assay with Staphylococcus aureus [1], 8 µg/mL (≈ 20.9 µM) against Staphylococcus aureus [6] and 32 µg/mL in the assay with Staphylococcus aureus [7]. Moreover, the Ki on Dihydrofolate reductase [14] was above 5000 nM; on Dihydrofolate reductase [16], 4 nM.
Turning to `COc1cc2nc(-c3cccs3)n(-c3cc4nc(N)nc(N)c4cc3Cl)c2cc1OC`, the results for the MIC with Staphylococcus aureus [1], against Staphylococcus aureus [6] and in the assay on Staphylococcus aureus [7] were 4 µg/mL (≈ 8.83 µM), 0.5 µg/mL (≈ 1.1 µM) and 0.5 µg/mL, respectively. Moreover, the Ki on Dihydrofolate reductase [14] is above 3000 nM; on Dihydrofolate reductase [16], 0.048 nM.

In general, MIC refers to the lowest concentration found to suppress growth. A word on the MIC50: it is the lowest concentration that inhibits either 50% of growth or 50% of the strains tested, depending on the study. A high value points to weaker potency. For orientation: MIC90 means the lowest concentration that inhibits either 90% of growth or 90% of the strains tested, depending on the study. Low readings indicate higher susceptibility, high ones lower susceptibility. By Ki is commonly meant the equilibrium dissociation constant of an inhibitor or competing ligand from its target.

For the origin of these results see ChEMBL document CHEMBL3124778, “Structure-based design of new dihydrofolate reductase antibacterial agents: 7-(benzimidazol-1-yl)-2,4-diaminoquinazolines” (J Med Chem, 2014).
